Among the data in ChEMBL document CHEMBL4376864, “Binding Loop Substitutions in the Cyclic Peptide SFTI-1 Generate Potent and Selective Chymase Inhibitors” (J Med Chem, 2020) are Ki, Ratio Ki and IC50 values, retold here.

One experiment has as its target T1, Cathepsin G (Homo sapiens, UniProt P08311).
T1 sequence (P08311 whole entry): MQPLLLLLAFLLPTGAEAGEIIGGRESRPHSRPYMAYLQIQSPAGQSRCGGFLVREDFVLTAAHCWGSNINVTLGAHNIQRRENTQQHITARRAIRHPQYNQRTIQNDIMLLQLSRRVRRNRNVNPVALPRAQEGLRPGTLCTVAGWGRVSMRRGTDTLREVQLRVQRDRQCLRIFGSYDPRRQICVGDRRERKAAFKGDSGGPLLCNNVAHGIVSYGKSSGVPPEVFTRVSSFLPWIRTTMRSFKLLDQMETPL
As to the kind of experiment: Inhibition of human cathepsin G using Suc-AAPF-MCA as substrate at pH 7.2 and 298 K measured every 60 secs for 600 secs.

The species named for experiment [1] is Homo sapiens. The experiment is described as follows: Selectivity index, ratio of Ki for human cathepsin G using Suc-AAPF-MCA as substrate to Ki for recombinant human chymase expressed in Pichia pastoris X-33 cells using NleTDY-pNA as substrate.
Experiment [2] concerns the target T2, Chymase (Homo sapiens, UniProt P23946).
T2 sequence (P23946 whole entry): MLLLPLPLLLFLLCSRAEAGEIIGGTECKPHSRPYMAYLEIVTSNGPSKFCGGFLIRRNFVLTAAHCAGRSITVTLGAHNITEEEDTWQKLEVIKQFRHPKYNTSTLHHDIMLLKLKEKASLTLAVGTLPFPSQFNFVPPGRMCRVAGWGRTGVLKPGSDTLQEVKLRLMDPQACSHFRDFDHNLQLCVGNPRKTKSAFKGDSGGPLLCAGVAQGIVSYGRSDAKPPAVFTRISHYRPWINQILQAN
The experiment is described as follows: Inhibition of recombinant human chymase expressed in Pichia pastoris X-33 cells using NleTDY-pNA as substrate assessed as cleavage of pNA at pH 7.2 and 298 K by spectrophotometry analysis.

In another experiment the target is Chymotrypsin (Homo sapiens, UniProt Q99895+P17538+P40313+Q6GPI1). As to the kind of experiment: Inhibition of human chymotrypsin using Suc-AAPF-MCA as substrate at pH 8 and 298 K measured every 60 secs for 600 secs. Type of experiment: protein assay.
The species entered for experiment [3] is Homo sapiens. The experiment is described as follows: Selectivity index, ratio of Ki for human chymotrypsin using Suc-AAPF-MCA as substrate to Ki for recombinant human chymase expressed in Pichia pastoris X-33 cells using NleTDY-pNA as substrate.
The next experiment deals with Prothrombin (Homo sapiens, UniProt P00734). The experiment is described as follows: Inhibition of human thrombin using Boc-VPR-MCA as substrate at pH 8 and 298 K measured every 60 secs for 600 secs.
Experiment [4] is described as follows: Inhibition of human cationic trypsin using Boc-VPR-MCA as substrate at pH 8 and 298 K measured every 60 secs for 600 secs.
A further experiment addresses T3, Coagulation factor XII (Homo sapiens, UniProt P00748).
T3 sequence (P00748 whole entry): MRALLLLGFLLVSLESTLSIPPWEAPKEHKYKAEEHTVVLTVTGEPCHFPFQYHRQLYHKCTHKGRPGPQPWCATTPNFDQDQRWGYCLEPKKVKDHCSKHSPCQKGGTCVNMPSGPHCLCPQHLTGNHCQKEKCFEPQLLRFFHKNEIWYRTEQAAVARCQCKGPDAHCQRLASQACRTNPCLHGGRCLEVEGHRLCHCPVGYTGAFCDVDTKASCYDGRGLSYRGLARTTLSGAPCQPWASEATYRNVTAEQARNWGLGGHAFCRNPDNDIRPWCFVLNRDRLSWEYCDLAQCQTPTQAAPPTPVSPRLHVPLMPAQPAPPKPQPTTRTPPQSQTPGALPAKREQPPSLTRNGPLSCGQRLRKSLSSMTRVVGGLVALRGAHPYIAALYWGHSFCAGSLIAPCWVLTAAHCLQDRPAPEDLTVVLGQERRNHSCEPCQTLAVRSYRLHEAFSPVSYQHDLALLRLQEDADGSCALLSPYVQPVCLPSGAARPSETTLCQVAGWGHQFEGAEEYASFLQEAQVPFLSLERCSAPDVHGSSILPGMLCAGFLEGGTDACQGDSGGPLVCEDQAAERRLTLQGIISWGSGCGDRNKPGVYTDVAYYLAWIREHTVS
The experiment is described as follows: Inhibition of human coagulation factor 12a using Ac-QRFR-pNA as substrate at pH 8 and 298 K measured every 60 secs for 600 secs.

The target in another experiment is T4, Neutrophil elastase (Homo sapiens, UniProt P08246).
T4 sequence (P08246 whole entry): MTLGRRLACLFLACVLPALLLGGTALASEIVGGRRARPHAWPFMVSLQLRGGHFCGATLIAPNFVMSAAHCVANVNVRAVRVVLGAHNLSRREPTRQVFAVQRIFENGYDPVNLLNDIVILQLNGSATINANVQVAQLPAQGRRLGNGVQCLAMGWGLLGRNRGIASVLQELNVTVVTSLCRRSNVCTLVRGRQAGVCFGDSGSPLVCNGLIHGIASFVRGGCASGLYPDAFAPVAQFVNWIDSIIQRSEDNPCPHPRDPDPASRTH
The experiment is described as follows: Inhibition of human neutrophil elastase using MeOSuc-AAPV-MCA as substrate at pH 7.2 and 298 K measured every 60 secs for 600 secs.

Experiment [5] concerns the target T2, Chymase. The experiment is described as follows: Inhibition of recombinant human chymase expressed in Pichia pastoris X-33 cells assessed as decrease in angiotensin 1 cleavage to angiotensin 2 incubated for 120 mins at 298 K by UPLC-MS analysis.
A further experiment concerns the target Kallikrein-7 (Homo sapiens, UniProt P49862). As to the kind of experiment: Inhibition of recombinant human KLK7 expressed in Pichia pastoris X-33 using KHLY-pNA as substrate at pH 8 and 298 K measured every 60 secs for 600 secs.

Bridge positions count the residues as written; N and C are the ends. Square brackets hold non-standard residues; d marks the D form. Peptide text beside a SMILES is read from it. Phe(4-Cl) = N[C@@H](Cc1ccc(Cl)cc1)C(=O)O; Phe(4-I) = N[C@@H](Cc1ccc(I)cc1)C(=O)O; Phe(4-Me) = Cc1ccc(C[C@H](N)C(=O)O)cc1

Chain of Kallikrein-7 (P49862 whole entry): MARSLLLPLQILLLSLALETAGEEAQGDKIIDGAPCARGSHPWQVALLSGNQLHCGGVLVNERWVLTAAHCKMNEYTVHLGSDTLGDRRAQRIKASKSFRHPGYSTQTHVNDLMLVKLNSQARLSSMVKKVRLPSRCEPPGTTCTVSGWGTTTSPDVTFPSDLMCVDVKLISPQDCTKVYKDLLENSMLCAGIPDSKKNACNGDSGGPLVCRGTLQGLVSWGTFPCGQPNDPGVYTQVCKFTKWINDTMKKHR

Take `N=C(N)NCCC[C@@H]1NC(=O)CNC(=O)[C@H](CC(=O)O)NC(=O)[C@@H]2CCCN2C(=O)[C@H](Cc2ccccc2)NC(=O)[C@@H]2CSSC[C@H](NC1=O)C(=O)N[C@@H](CCC(N)=O)C(=O)N[C@@H](Cc1ccc(O)cc1)C(=O)N[C@@H](CO)C(=O)N[C@@H](CCC(=O)O)C(=O)N1CCC[C@H]1C(=O)N1CCC[C@H]1C(=O)N[C@@H](CCC(=O)O)C(=O)N2` (cyclo(CFPDGRCQYSEPPE); disulfide 1-7): the figures for the inhibition constant (Ki) on Cathepsin G, at Chymase [2] and on Chymotrypsin were 54 nM, 6.6 nM and 2900 nM, respectively. In addition, the Ratio Ki in the experiment filed under Homo sapiens [1] was determined as 8.2; in the experiment listed under Homo sapiens [3] it was 440.
Regarding `N=C(N)NCCC[C@@H]1NC(=O)CNC(=O)[C@H](CC(=O)O)NC(=O)[C@@H]2CCCN2C(=O)[C@H](Cc2ccccc2)NC(=O)[C@@H]2CSSC[C@H](NC1=O)C(=O)N[C@@H](CCC(N)=O)C(=O)N[C@@H](Cc1ccc(Cl)cc1)C(=O)N[C@@H](CO)C(=O)N[C@@H](CCC(=O)O)C(=O)N1CCC[C@H]1C(=O)N1CCC[C@H]1C(=O)N[C@@H](CCC(=O)O)C(=O)N2` (cyclo(CFPDGRCQ[Phe(4-Cl)]SEPPE); disulfide 1-7), the IC50 against Prothrombin was above 10000 nM; in [4] it was above 10000 nM; against Coagulation factor XII, above 10000 nM; at Neutrophil elastase it was above 10000 nM; at Chymase [5], 33 nM; on Kallikrein-7, above 10000 nM. In addition, the inhibition constant (Ki) stood at 150 nM on Cathepsin G, 1.8 nM on Chymase [2] and 330 nM at Chymotrypsin. Moreover, the Ratio Ki in the experiment filed under Homo sapiens [1] was found to be 83.
In the case of `N=C(N)NCCC[C@@H]1NC(=O)CNC(=O)[C@H](CC(=O)O)NC(=O)[C@@H]2CCCN2C(=O)[C@H](Cc2ccccc2)NC(=O)[C@@H]2CSSC[C@H](NC1=O)C(=O)N[C@@H](CCC(N)=O)C(=O)N[C@@H](Cc1ccc(I)cc1)C(=O)N[C@@H](CO)C(=O)N[C@@H](CCC(=O)O)C(=O)N1CCC[C@H]1C(=O)N1CCC[C@H]1C(=O)N[C@@H](CCC(=O)O)C(=O)N2` (cyclo(CFPDGRCQ[Phe(4-I)]SEPPE); disulfide 1-7), the IC50 at Prothrombin was above 10000 nM; in experiment [4], above 10000 nM; against Coagulation factor XII, above 10000 nM; at Neutrophil elastase, above 10000 nM; against Chymotrypsin it was above 10000 nM; at Chymase [5], 290 nM. Moreover, on Kallikrein-7, the IC50 was above 10000 nM. Besides, the Ki at Cathepsin G is 1200 nM; on Chymase [2], 19 nM.
In the case of `Cc1ccc(C[C@@H]2NC(=O)[C@H](CCC(N)=O)NC(=O)[C@@H]3CSSC[C@H](NC(=O)[C@H](CCC(=O)O)NC(=O)[C@@H]4CCCN4C(=O)[C@@H]4CCCN4C(=O)[C@H](CCC(=O)O)NC(=O)[C@H](CO)NC2=O)C(=O)N[C@@H](Cc2ccccc2)C(=O)N2CCC[C@H]2C(=O)N[C@@H](CC(=O)O)C(=O)NCC(=O)N[C@@H](CCCNC(=N)N)C(=O)N3)cc1` (cyclo(CFPDGRCQ[Phe(4-Me)]SEPPE); disulfide 1-7), the IC50 (against Prothrombin; in [4]; against Coagulation factor XII; against Neutrophil elastase; on Kallikrein-7) was above 10000 nM each time. Further, the Ki at Cathepsin G is 160 nM; at Chymase [2], 2.2 nM; at Chymotrypsin it was 1500 nM. Moreover, the values for the Ratio Ki in the experiment filed under Homo sapiens [1] and in the experiment listed under Homo sapiens [3] were 72 to 80 and 180, respectively.
